Each block holds one molecule with its values, some of them ahead of it. Calls of active or inactive are those of the source.
Key:
H9c2 = assay: cells; assay type: functional, cell-based; settings: Rattus norvegicus, H9c2, Myocardium;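 note: confirmatory concentration-response retest of ultra-high-throughput screening hits for modulation of myocardial damage; cell death induced by hydrogen peroxide oxidative stress; compound pretreatment for 60 min then peroxide exposure for 2 h; potency is for protecting the cells against peroxide damage rather than for killing them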
Melanocortin receptor 4 = Melanocortin receptor 4 (Homo sapiens, UniProt P32245); assay type: functional, cell-based;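 note: Cell-based assay with luminescence read-out, confirmatory dose-response testing for agonist activity of biased ligands at MC4R; human U2OS cells with tagged receptor and beta-arrestin; potency of agonists that increase receptor coupling to beta-arrestin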
[1] = molecular target: T1, Sentrin-specific protease 8 (Homo sapiens, UniProt Q96LD8); assay: inhibition of human SENP8 cleavage activity – biochemical, luminescence, SAR follow-up (AID 504501); assay type: functional
T1 sequence (Q96LD8 whole entry): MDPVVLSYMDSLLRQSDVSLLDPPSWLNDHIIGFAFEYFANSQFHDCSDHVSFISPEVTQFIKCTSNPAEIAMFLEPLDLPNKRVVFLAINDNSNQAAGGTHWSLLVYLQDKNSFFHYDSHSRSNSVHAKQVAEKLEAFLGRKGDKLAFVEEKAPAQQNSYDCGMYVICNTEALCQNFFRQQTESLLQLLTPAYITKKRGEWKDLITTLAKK

[2] = molecular target: T2, Sentrin-specific protease 7 (Homo sapiens, UniProt Q9BQF6); assay: inhibition of human SENP7 cleavage activity – biochemical, luminescence, SAR follow-up (AID 504497); assay type: functional
T2 sequence (Q9BQF6 whole entry): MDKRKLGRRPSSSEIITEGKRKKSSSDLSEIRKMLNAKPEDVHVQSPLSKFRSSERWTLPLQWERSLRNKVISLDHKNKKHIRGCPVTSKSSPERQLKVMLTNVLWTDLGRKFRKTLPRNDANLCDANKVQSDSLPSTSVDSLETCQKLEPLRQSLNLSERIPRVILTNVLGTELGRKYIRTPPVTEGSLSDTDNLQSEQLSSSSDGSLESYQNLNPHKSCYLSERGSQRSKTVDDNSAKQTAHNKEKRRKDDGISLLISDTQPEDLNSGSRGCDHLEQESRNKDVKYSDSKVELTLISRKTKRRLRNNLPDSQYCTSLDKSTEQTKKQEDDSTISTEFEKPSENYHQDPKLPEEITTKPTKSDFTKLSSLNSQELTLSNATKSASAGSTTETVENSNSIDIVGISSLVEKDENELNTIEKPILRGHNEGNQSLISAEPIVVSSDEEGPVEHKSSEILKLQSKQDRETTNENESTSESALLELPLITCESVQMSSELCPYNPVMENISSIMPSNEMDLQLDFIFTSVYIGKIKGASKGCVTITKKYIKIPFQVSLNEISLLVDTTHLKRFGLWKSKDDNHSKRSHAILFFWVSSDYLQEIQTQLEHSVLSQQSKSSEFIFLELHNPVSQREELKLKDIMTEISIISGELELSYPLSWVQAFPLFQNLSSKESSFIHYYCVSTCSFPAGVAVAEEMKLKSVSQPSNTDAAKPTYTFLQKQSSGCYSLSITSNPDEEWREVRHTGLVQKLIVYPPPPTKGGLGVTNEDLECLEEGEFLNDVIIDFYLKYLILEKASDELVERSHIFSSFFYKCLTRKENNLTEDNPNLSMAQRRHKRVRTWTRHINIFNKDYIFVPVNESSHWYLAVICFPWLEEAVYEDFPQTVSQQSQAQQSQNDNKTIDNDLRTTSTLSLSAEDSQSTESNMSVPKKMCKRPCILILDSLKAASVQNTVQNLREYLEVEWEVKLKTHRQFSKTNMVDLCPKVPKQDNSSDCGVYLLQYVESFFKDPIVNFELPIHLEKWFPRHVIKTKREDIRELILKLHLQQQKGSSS

Caspase-3 = molecular target: T3, Caspase-3 (Homo sapiens, UniProt P42574); assay: SAR Analysis of small molecule inhibitors of Sentrin-specific proteases (SENPs) using a Caspase-3 Selectivity assay. [Related pubchem assays (depositor defined):AID2540, AID2599, AID434973, AID489001]; assay type: functional
T3 sequence (P42574 whole entry): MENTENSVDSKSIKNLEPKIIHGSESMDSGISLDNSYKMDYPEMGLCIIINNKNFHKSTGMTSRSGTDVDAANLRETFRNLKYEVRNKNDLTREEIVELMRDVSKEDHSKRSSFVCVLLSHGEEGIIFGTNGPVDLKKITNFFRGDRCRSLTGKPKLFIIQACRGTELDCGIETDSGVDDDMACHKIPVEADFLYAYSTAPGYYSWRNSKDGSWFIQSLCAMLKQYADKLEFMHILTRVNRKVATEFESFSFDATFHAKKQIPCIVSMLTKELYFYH

[3] = molecular target: T4, Sentrin-specific protease 6 (Homo sapiens, UniProt Q9GZR1); assay: SAR Analysis of small molecule inhibitors of Sentrin-specific protease 6 (SENP6) using a Luminescent assay. [Related pubchem assays (depositor defined):AID2582, AID2599]; assay type: functional
T4 sequence (Q9GZR1 whole entry): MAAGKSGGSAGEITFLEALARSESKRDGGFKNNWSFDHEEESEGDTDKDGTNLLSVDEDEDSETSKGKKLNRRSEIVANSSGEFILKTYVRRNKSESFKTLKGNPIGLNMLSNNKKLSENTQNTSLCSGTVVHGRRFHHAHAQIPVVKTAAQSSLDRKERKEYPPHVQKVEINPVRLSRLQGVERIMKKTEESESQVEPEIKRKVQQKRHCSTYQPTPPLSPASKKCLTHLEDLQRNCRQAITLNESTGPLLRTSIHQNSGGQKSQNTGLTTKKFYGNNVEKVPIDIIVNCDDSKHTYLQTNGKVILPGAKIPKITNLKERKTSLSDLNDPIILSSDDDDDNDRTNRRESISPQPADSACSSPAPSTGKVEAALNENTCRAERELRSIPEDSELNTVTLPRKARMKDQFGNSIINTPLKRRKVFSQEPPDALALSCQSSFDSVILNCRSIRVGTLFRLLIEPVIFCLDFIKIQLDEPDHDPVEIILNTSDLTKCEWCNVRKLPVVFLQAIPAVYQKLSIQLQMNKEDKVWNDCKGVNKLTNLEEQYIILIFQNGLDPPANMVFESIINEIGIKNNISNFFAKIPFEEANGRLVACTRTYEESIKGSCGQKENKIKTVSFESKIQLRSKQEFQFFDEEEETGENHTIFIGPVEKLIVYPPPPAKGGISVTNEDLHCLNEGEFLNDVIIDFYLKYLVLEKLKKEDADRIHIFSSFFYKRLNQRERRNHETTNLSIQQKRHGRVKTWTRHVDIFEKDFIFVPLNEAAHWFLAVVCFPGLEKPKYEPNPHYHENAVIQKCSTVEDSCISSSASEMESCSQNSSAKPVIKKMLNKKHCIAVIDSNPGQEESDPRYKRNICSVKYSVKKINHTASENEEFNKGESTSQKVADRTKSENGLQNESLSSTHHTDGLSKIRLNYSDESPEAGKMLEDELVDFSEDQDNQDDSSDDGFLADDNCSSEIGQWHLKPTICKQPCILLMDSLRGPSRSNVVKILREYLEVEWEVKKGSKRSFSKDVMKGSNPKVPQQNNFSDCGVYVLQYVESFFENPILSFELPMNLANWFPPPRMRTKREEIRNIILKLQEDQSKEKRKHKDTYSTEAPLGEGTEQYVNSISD

[4] = molecular target: DNA dC->dU-editing enzyme APOBEC-3G (Homo sapiens, UniProt Q9HC16); assay: inhibition of APOBEC3G ssDNA deamination – biochemical, fluorescence, single-stranded DNA substrate, SAR follow-up (AID 602136); assay type: functional; settings: read-out: IC50_Mean
[5] = molecular target: DNA dC->dU-editing enzyme APOBEC-3A (Homo sapiens, UniProt P31941); assay: SAR analysis of small molecule inhibitors of APOBEC3A DNA Deaminase via a fluorescence-based single-stranded DNA deaminase assay.; assay type: functional; settings: read-out: IC50_Mean
[6] = molecular target: T5, High affinity choline transporter 1 (Homo sapiens, UniProt Q9GZV3); assay: human choline transporter blockers, potency – cell-based, 5-point CRC, membrane potential dye, dose response (AID 504840); assay type: functional
T5 sequence (Q9GZV3 whole entry): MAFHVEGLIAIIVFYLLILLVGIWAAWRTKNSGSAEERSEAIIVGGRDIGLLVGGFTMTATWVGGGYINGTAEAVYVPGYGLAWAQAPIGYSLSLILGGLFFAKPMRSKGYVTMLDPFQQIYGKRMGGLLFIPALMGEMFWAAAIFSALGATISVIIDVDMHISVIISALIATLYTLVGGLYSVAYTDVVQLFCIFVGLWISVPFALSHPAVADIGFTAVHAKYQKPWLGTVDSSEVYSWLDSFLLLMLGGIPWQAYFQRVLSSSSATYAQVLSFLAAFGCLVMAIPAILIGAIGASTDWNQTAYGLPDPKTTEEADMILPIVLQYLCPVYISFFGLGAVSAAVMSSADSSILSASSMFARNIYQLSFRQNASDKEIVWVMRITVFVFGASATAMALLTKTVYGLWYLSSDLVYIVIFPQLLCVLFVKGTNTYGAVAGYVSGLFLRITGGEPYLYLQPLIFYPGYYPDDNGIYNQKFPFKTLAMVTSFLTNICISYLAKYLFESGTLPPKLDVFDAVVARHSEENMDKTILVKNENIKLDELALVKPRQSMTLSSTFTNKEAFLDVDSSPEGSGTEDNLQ

[7] = molecular target: T5, High affinity choline transporter 1; assay: human choline transporter blockers, potency – cell-based, 10-point CRC, membrane potential dye, dose response (AID 588401); assay type: functional;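 note: membrane potential dye fluorescence of choline-evoked depolarization via CHT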
[8] = molecular target: T6, Rac GTPase-activating protein 1 (Homo sapiens, UniProt Q9H0H5); assay: blockers of MgcRacGAP-driven Rac1 GTP hydrolysis – biochemical, ADP Hunter fluorescence, primary and confirmatory, confirmation (AID 624330); assay type: functional
T6 sequence (Q9H0H5 whole entry): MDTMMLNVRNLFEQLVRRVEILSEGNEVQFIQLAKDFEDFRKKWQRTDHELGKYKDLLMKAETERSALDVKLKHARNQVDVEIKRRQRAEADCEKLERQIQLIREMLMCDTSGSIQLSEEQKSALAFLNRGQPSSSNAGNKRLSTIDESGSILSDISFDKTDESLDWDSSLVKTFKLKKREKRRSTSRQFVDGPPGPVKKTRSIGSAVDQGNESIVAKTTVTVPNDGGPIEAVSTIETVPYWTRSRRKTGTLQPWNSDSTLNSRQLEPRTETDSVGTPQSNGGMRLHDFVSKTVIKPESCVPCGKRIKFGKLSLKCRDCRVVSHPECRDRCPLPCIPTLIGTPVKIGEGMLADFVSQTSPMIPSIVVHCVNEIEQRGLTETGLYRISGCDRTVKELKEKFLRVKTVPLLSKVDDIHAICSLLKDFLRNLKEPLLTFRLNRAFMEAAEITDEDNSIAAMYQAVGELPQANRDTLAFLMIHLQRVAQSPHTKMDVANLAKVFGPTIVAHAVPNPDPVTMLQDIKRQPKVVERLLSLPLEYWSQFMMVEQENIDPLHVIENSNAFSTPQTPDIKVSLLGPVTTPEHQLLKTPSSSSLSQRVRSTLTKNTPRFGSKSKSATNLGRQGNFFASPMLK

[9] = viability loss in HeLa cells – cytotoxicity control for MgcRacGAP inhibitor project, dose response (AID 624300); assay type: functional
[10] = molecular target: T7, Probable nicotinate-nucleotide adenylyltransferase (Staphylococcus aureus (strain N315), UniProt P65502); assay type: functional, Staphylococcus aureus subsp. aureus N315;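 for IC50 Mean: confirmatory dose-response retesting of NadD inhibitor hits first found in an ultra-high-throughput screen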
[11] = molecular target: T7, Probable nicotinate-nucleotide adenylyltransferase; assay type: functional, Staphylococcus aureus subsp. aureus N315; settings: read-out: IC50_Mean
[12] = system: Streptococcus sp. 'group A'; assay: Streptococcus pyogenes SK(-)GAS viability under kanamycin – luminescence, BacTiterGlo, confirmation, counter-screen for streptokinase expression inhibitor project, dose response (AID 1900); assay type: functional, organism-based
Streptococcus = assay: GAS UMAA2166 growth inhibition – luminescence, BacTiterGlo, counter-screen for streptokinase expression inhibitor project, dose response (AID 1915); assay type: functional, organism-based;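 note: potency for reduction of bacterial viability or growth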
[13] = molecular target: Nuclear receptor subfamily 5 group A member 2 (Homo sapiens, UniProt O00482); assay type: functional, cell-based;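 note: HEK293T cells transfected with LRH-1 and a StAR promoter luciferase reporter; potency for inhibitors that lower LRH-1 driven reporter light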
[14] = nonselective StAR promoter luciferase inhibitors – cell-based, luminescence, luciferase reporter, counter-screen for LRH-1 inverse agonist project, dose response (AID 651969); assay type: functional
Steroidogenic factor 1 = Steroidogenic factor 1 (Homo sapiens, UniProt Q13285); assay: Counterscreen for inverse agonists of the liver receptor homolog-1 (LRH-1; NR5A2): Luminescence-based cell-based high throughput dose response assay to identify inverse agonists of the Steroidogenic Factor 1 Nuclear Receptor (SF1; NR5A1).; assay type: functional
Chain of Steroidogenic factor 1 (Q13285 whole entry): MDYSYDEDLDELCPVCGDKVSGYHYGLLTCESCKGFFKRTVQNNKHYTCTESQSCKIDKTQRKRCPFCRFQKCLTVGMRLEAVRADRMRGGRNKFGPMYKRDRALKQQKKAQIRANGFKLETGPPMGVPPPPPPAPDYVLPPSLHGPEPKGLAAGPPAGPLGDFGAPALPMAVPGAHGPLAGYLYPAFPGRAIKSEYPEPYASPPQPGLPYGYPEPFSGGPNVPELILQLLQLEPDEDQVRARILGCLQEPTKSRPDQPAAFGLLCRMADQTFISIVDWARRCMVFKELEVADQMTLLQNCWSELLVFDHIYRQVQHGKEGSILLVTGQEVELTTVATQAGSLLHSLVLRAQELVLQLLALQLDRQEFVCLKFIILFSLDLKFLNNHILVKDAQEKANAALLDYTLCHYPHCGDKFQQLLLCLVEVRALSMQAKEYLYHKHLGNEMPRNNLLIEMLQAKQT

Chain of DNA dC->dU-editing enzyme APOBEC-3G (Q9HC16 whole entry): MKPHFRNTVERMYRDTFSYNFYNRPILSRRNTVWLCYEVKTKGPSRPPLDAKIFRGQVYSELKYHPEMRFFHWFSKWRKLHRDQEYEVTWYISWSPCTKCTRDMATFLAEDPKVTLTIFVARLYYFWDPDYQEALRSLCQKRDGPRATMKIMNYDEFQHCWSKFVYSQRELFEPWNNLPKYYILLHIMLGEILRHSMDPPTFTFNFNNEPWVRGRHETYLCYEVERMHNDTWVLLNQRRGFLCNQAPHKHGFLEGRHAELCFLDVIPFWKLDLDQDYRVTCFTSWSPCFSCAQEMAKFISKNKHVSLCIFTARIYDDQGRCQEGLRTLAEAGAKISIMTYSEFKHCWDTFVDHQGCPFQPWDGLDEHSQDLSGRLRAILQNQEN
Chain of Nuclear receptor subfamily 5 group A member 2 (O00482 whole entry): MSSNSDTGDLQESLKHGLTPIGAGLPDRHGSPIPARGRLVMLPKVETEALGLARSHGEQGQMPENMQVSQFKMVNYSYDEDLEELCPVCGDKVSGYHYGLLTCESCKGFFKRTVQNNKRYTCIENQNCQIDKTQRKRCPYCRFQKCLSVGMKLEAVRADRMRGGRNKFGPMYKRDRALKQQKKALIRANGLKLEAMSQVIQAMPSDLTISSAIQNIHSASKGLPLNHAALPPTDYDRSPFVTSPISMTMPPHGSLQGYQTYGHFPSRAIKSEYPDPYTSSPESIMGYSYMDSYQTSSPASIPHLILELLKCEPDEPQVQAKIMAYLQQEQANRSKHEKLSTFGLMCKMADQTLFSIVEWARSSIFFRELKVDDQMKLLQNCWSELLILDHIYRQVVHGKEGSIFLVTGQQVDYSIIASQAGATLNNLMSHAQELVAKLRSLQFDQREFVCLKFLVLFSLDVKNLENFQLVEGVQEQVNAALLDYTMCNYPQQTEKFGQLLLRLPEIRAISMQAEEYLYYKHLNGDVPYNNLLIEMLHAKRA
Chain of Melanocortin receptor 4 (P32245 whole entry): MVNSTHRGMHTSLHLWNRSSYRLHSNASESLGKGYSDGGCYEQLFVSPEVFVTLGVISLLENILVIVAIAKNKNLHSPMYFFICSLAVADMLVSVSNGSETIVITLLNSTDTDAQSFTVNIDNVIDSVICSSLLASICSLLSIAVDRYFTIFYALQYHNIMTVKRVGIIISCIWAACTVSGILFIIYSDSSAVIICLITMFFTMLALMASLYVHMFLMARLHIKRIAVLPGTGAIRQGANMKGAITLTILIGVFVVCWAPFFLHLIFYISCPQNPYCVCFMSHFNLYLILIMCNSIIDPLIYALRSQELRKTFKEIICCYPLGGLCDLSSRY
Chain of DNA dC->dU-editing enzyme APOBEC-3A (P31941 whole entry): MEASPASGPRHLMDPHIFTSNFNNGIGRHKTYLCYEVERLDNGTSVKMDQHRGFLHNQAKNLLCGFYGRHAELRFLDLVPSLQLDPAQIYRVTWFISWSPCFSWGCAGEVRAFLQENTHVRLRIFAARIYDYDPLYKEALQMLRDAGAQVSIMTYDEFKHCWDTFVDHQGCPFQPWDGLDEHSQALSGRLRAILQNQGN

SMILES: COc1cc(-c2cc(NC=O)c3ncc(-c4cccc(C(F)(F)F)c4)n3c2)cc(OC)c1OC
IC50 (H9c2): 51.3 µM (inactive)
EC50 (Melanocortin receptor 4): > 89.2 µM (inactive)

IC50 [2]: > 99 µM (inactive)
IC50 (Caspase-3): > 99 µM (inactive)
IC50 [3]: > 99 µM (inactive)
SMILES: N#Cc1c(NC(=O)c2cnn3cc(Br)cnc23)sc2c1CCC2
IC50 [1]: > 99 µM (inactive)

SMILES: CCOc1ccccc1N1C(=O)C(=O)N(CC(=O)c2ccc[nH]2)C1=O
IC50 [4]: > 99 µM (inactive)
IC50 [5]: > 99 µM (inactive)

SMILES: O=C(O)c1ccc(Cl)c2c1C1C=CCC1C(c1ccccc1F)N2 (stereo unspecified)
IC50 [4]: > 99 µM (inactive)
IC50 [5]: 27.4 µM (inactive)

IC50 [6]: 0.778 µM (active)
IC50 [7]: 0.409 µM (active)
SMILES: COc1ccccc1NS(=O)(=O)c1ccc(C)c(C(=O)NCC(c2ccco2)N2CCCCC2)c1 (stereo unspecified)

IC50 [8]: 22.2 µM (active)
SMILES: COc1cc(/C=C2\SC(Nc3ccccc3OC)=NC2=O)ccc1O
CC50 [9]: 100 µM (active)

IC50 [10]: 12.7 µM (active)
IC50 [11]: 37.7 µM (active)
SMILES: NC(=O)[C@H]1CC2(CC(c3cccc(NC(=O)COc4ccc(Cl)cc4)c3)=NO2)CN1C(=O)CC(c1ccccc1)c1ccccc1 (stereo partly specified)

IC50 [6]: 2.4 µM (active)
IC50 [7]: 11.2 µM (active)
SMILES: COc1ccc(CSc2nc3nc(C)cc(C)n3n2)cc1F

SMILES: Cc1ccc(NC(=S)NC(=O)c2ccc(-c3ccc(Cl)cc3)o2)c(O)c1
EC50 [12]: 7.63 µM (active)
EC50 (Melanocortin receptor 4): > 89.2 µM (inactive)
EC50 (Streptococcus): 9.04 µM (active)

SMILES: CCOC(=O)c1cc2sccc2n1CC(=O)Nc1ccc2c(c1)OCCO2
IC50 [13]: 35.9 µM (inactive)
IC50 [14]: 35.9 µM (inactive)
IC50 (Steroidogenic factor 1): 15.7 µM (inactive)

SMILES: CCc1cc(O)nc(SCC(=O)Nc2ccc3c(c2)OCCO3)n1
IC50 [13]: 35.9 µM (inactive)
IC50 [14]: 35.9 µM (inactive)
IC50 (Steroidogenic factor 1): 12 µM (inactive)

IC50 [2]: 5 µM (active)
IC50 (Caspase-3): 18 µM (active)
IC50 [3]: 13 µM (active)
SMILES: Ic1ccccc1-c1nc(/C=C/c2ccccc2)no1
IC50 [1]: 15 µM (active)
